This note sets out measurements from patent publication US9695191B2, “Conformationally constrained, fully synthetic macrocyclic compounds” (POLYPHOR AG, priority 2009, dated 2017).

Data set [1] can be described thus: Metabolic stability, CD-1 mouse microsomes. The conditions noted are these: 37° C.; for Metabolic Stability 60 min mouse: % of the initial 0 minutes value at 60 min, 10 μM. The class given is in vitro ADME. The method, then:
(§1) Microsomes from a human 50 donor mixed gender pool and 1:1 mixtures of microsomes from CD-1 mouse single-gender pools are purchased from Celsis (Belgium). The enzymatic reaction is performed in a buffer containing an NADPH regeneration system and microsomes with the following end concentrations: 100 mM potassium phosphate buffer (all from Sigma), 1 mg/mL glucose-6-phosphate, 1 mg/mL β-nicotinamide adenine dinucleotide phosphate (NADP), 0.65 mg/mL magnesium chloride, 0.8 units/mL of glucose-6-phosphate dehydrogenase (prediluted with 5 mM citrate buffer), 10 μM compound and 1 mg/ml microsomal protein. Compounds are incubated at 37° C. in duplicates and samples are taken after 0, 20 and 60 minutes. After acetonitrile precipitation (2 volumes) and HPLC/MS/MS analysis metabolic turnover is expressed in % of the initial 0 minutes value and half life T½ (min) is calculated. Verapamil for human and propranolol for mouse are used as reference and are assayed with every experimental set. • F. P. Guengerich, Analysis and Characterization of Enzymes; in: Principles and Methods of Toxicology; A. W. Hayes (Ed.) Raven Press: New York, 1989, 777-813. • R. Singh et al., In vitro metabolism of a potent HIV-protease inhibitor (141W94) using rat, monkey and human liver S9, Rapid Commun. Mass Spectrom. 1996, 10, 1019-1026. 5. Results

Data set [2] can be described thus: Metabolic stability, human microsomes. The class given is in vitro ADME. The conditions noted are these: 37° C.; for Metabolic Stability 60 min hum: % of the initial 0 minutes value at 60 min, 10 μM. The method, then: as §1
For data set [3] the following is noted: human, 10 μM.
For data set [4] the following is noted: both, CD-1, mouse, 10 μM.
Description: Example compounds were dissolved in DMSO/H2O 90:10 to a final concentration of 10 mM for plasma stability determination and metabolic stability determination.
Human plasma (3-5 donors, Blutspendedienst SRK, Basel) and CD-1 mouse plasma (mixed gender pool>50 animals, Innovative Research, CA, USA) are both sodium citrate stabilized. The assay is performed in triplicates at 10 μM compound concentration and 37° C. Samples are taken at 0, 15, 60, and 240 minutes and stopped by precipitation with 2 volumes of acetonitrile. The supernatant is collected, evaporated and reconstituted in a 5% acetonitrile solution to be analyzed by HPLC/MS/MS. The resulting peak area counts are expressed in percent of the 0 value and used to determine the endpoint stability in % and the half life T½ in minutes. In order to monitor assay integrity the degradation of propantheline is assayed with every experimental set
Where [5] appears, read: 10 μM compound, 1 mg/ml microsomal protein, sampling up to 60 min.

As to `CN(C)CCNC(=O)[C@@H]1CCC(=O)N(C)CC(=O)N2C[C@@H](NC(=O)Cc3c[nH]c4ccccc34)C[C@H]2COc2ccc(F)cc2C(=O)N1C` [Ex. 11, (2S,11S,19aS)-N-[2-(dimethylamino)ethyl]-15-fluoro-2-{[2-(1H-indol-3-yl)acetyl]amino}-7,12-dimethyl-5,8,13-trioxo-2,3,6,7,8,9,10,11,12,13,19,19a-dodecahydro-1H,5H-pyrrolo [2,1-c][1,4,7,12]benzoxatriazacyclopentadecine-11-carboxamide], the “Metabolic Stability 60 min mouse” value in data set [1] is recorded as 77%. Besides, in data set [2], the “Metabolic Stability 60 min hum” value is reported as 74%. In data set [3], the “Plasma Stability 240 min hum” value was 100%. Further, the “Plasma Stability 240 min mouse” value in data set [4] is 100%.

For `CC(=O)N[C@H]1C[C@H]2COc3ccc(F)cc3C(=O)N(C)[C@H](C(=O)N3CCCC3)CCC(=O)N(C)CC(=O)N2C1` [Ex. 37, N-[(2S,11S,19aS)-15-fluoro-7,12-dimethyl-5,8,13-trioxo-11-(1-pyrrolidinylcarbonyl)-2,3,6,7,8,9,10,11,12,13,19,19a-dodecahydro-1H,5H-pyrrolo[2,1-c][1,4,7,12]benzoxatriazacyclopentadecin-2-yl]acetamide], in data set [1] (setting [5]), the “Metabolic Stability T ½ [min] mouse” value worked out at 60 min. In data set [1], the “Metabolic Stability 60 min mouse” value was 100%. In addition, the “Metabolic Stability T ½ [min] hum” value in data set [2] (setting [5]) worked out at 60 min. In addition, in data set [2], the “Metabolic Stability 60 min hum” value is reported as 100%. In addition, the “Plasma Stability 240 min hum” value in data set [3] turned out to be 77%. The “Plasma Stability 240 min mouse” value in data set [4] was 100%.

With `CCN(CC)[C@H]1C[C@H]2COc3ccc(F)cc3C(=O)N(C)[C@H](C(=O)N3CCCC3)CCC(=O)N(C)CC(=O)N2C1` [Ex. 43, (2S,11S,19aS)-2-(diethylamino)-15-fluoro-7,12-dimethyl-11-(1-pyrrolidinylcarbonyl)-2,3,6,7,9,10,11,12,19,19a-decahydro-1H,5H-pyrrolo[2,1-c][1,4,7,12] benzoxatriazacyclopentadecine-5,8,13-trione], the “Metabolic Stability 60 min mouse” value in data set [1] was found to be 98%. Also, the “Metabolic Stability 60 min hum” value in data set [2] stood at 100%. For the same molecule, the “Plasma Stability 240 min hum” value in data set [3] stood at 82%. In addition, the “Plasma Stability 240 min mouse” value in data set [4] was found to be 89%.

For `CN(C)CCNC(=O)[C@@H]1CCC(=O)N(C)CC(=O)N2C[C@@H](NC(=O)Cc3cccc4ccccc34)C[C@H]2COc2ccc(F)cc2C(=O)N1C` [Ex. 49, (2S,11S,19aS)-N-[2-(dimethylamino)ethyl]-15-fluoro-7,12-dimethyl-2-{[2-(1-naphthyl)acetyl]amino}-5,8,13-trioxo-2,3,6,7,8,9,10,11,12,13,19,19a-dodecahydro-1H,5H-pyrrolo[2,1-c][1,4,7,12]benzoxatriazacyclopentadecine-11-carboxamide], in data set [1], the “Metabolic Stability 60 min mouse” value is 83%. Further, the “Metabolic Stability 60 min hum” value in data set [2] turned out to be 10%. Further, the “Plasma Stability 240 min hum” value in data set [3] turned out to be 83%. In addition, the “Plasma Stability 240 min mouse” value in data set [4] came out at 96%.

For the molecule `CCCCCCCCCC(=O)N[C@H]1CN(C)C(=O)c2cccc(c2)OC[C@@H]2C[C@H](NC(=O)Cc3c[nH]c4ccccc34)CN2C(=O)CN(C)C1=O` [Ex. 213, N-[(4S,6S,13S)-6-{[2-(1H-indol-3-yl)acetyl]amino)-11,15-dimethyl-9,12,16-trioxo-2-oxa-8,11,15-triazatricyclo[15.3.1.0^4,8]henicosa-1(21),17,19-trien-13-yl]decanamide], the “Metabolic Stability 60 min mouse” value in data set [1] was found to be 4%. Moreover, the “Metabolic Stability 60 min hum” value in data set [2] amounted to 0%.

Take `CN1CC(=O)N2C[C@H](NC(=O)Cc3ccc4ccccc4c3)C[C@H]2COc2ccc(cc2)C(=O)N(C)[C@H](C(=O)N2CCCC2)CCC1=O` [Ex. 264, N-[(4S,6R,15S)-11,16-dimethyl-9,12,17-trioxo-15-(1-pyrrolidinylcarbonyl)-2-oxa-8,11,16-triazatricyclo[16.2.2.0^4,8]docosa-1(20),18,21-trien-6-yl]-2-(2-naphthyl)acetamide]: in data set [1], the “Metabolic Stability 60 min mouse” value turned out to be 32%. Also, the “Plasma Stability 240 min hum” value in data set [3] was determined as 94%. For the same molecule, the “Plasma Stability 240 min mouse” value in data set [4] was determined as 88%.
